Test results from US4952605A (priority 1988, dated 1990).

Columns and labels:
[1] = system: PMA-induced ear edema (inflammation) in mice; assay: Mouse ear anti-inflammatory assay (PMA-induced edema); format: in vivo; conditions: for relative increase in ear weight: statistically significant difference
Method: Test compound and phorbol myristate acetate (PMA) are topically applied simultaneously to the pinnae of the left ears of mice. PMA alone is applied to the right ear. Three hours and 20 minutes after application, the mice are sacrificed, left and right ears removed, and standard sized bores taken. Edema (inflammation) is measured as the difference in weight between left and right ears (C. G. Van Arman, Clin Pharmacol Ther (1974) 16:900-904).
The results of separate, similar experiments are set forth below (*=statistically significant difference).
In another separate experiment, the effect of dehydro-seco-manoalide was determined (PMA=15 μg/ear).
In separate, similar experiments, where […] was at 1.5 ug/ear, luffariellin A and B (50 ug/ear) gave statistically significant differences in relative increase in ear weight (0.308±0.065 and 0.262±0.053, respectively) as compared to PNA alone (0.618± 0.113); as did 50 ug luffariellolide (0.221±0.068) as compared to PMA alone (0.929±0.200).

[2] = biological target: bee venom phospholipase A2 (PLA2) (Apis mellifera, UniProt P00630); assay: biochemical; conditions: for inhibition at 0.75 µM: pH 7.4, read-out: Percent Inhibition of PLA2; for inhibition at 0.25 µM / inhibition at 0.5 µM / inhibition at 2 µM / inhibition at 4 µM: pH 7.4, read-out: Percent Inhibition of PLA2; for inhibition at 0.5 µM: 0.50 uM
bee venom PLA2 = bee venom PLA2 (Apis mellifera, UniProt P00630); assay: biochemical; conditions: pH 7.4
[3] = system: Chinese hamster ovary K1 cells; assay: Effect on CHO cell growth; format: cell-based; conditions: Cricetulus griseus
Method: Chinese hamster ovary K1 cells are maintained in Dulbecco's Modified Eagle's Medium at 36° C. with 95% air and 5% CO2. Cells are transferred into 35 mm culture dishes, allowed 24 hours to adhere, then exposed to medium containing drug for the duration of the experiment. The number of adhered cells is counted at 24, 48, and 72 hours after initial exposure to drug.

[4] = dose 25.0 ug/ear topical, PMA 1.5 ug/ear, untreated 9.3 mg, PMA alone 23 mg, *=statistically significant
[5] = dose 50.0 ug/ear topical, PMA 1.5 ug/ear, untreated 9.3 mg, PMA alone 23 mg, *=statistically significant
[6] = 50 ug/ear, PNA [sic] 1.5 ug/ear, PNA alone 0.618±0.113

Chain of bee venom phospholipase A2 (PLA2) (P00630 34-167 limits assumed): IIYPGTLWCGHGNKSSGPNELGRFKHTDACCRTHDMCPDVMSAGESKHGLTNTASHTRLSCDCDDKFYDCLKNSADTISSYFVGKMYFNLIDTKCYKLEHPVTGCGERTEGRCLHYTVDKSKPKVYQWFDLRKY
Chain of bee venom PLA2 (P00630 34-167 limits assumed): as above

CC(=CCCC(C=O)=CC=CC1=CC(=O)OC1O)CCC1=C(C)CCCC1(C)C (stereo not shown) [Dehydro-seco-manoalide]
relative potency of dehydro-seco-manoalide to manoalide ([1]; from dose/response data, relative to manoalide): 1.32
Average Ear Weight ([1]; separate experiment, dose 50 ug/ear, PMA=15 μg/ear, no agent 24.60 mg/ear): 14.30 mg/ear
inhibition at 0.75 µM [2]: 51.3%
inhibition at 0.25 µM [2]: 30.3%
inhibition at 0.5 µM [2]: 61.8%
inhibition at 2 µM [2]: 72.4%
inhibition at 4 µM [2]: 87.3%

CC(=CCCC(=CCC(O)C1=CC(=O)OC1)CO)CCC1=C(C)CCCC1(C)C (stereo not shown) [Manoalide Diol, 3,7-Bis(hydroxymethyl)-4-hydroxy-11-methyl-13-(2,6,6-trimethylcyclohexenyl)-2,6,10-tridecatrienoic acid gamma-lactone]
Average Ear Weight [1, 4]: 14.54 mg/ear
Average Ear Weight [1, 5]: 13.17 mg/ear

CC(=O)OC1OC(=O)C=C1C1CC=C(CCC=C(C)CCC2=C(C)CCCC2(C)C)C(=O)O1 (stereo not shown) [Manoalide delta Lactone Acetate, manoalide delta-lactone acetate]
Average Ear Weight [1, 4]: 16.64 mg/ear
Average Ear Weight [1, 5]: 13.34 mg/ear

CC(=CCCC1=CCC(C2=CC(=O)OC2O)OC1=O)CCC1=C(C)CCCC1(C)C (stereo not shown) [Manoalide delta Lactone, manoalide delta-lactone]
Average Ear Weight [1, 4]: 16.28 mg/ear
Average Ear Weight [1, 5]: 14.87 mg/ear

CC(=CCCC1=CCC(C2=CC(=O)OC2O)OC1O)CCC1=C(C)CCCC1(C)C (stereo not shown) [Manoalide, reference compound]
Average Ear Weight ([1]; dose 7.5 ug/ear topical, PMA 1.5 ug/ear, untreated 9.3 mg, PMA alone 23 mg, *=statistically significant): 20.45 mg/ear
Average Ear Weight ([1]; dose 10.0 ug/ear topical, PMA 1.5 ug/ear, untreated 9.3 mg, PMA alone 23 mg, *=statistically significant): 19.75 mg/ear
Average Ear Weight ([1]; dose 20.0 ug/ear topical, PMA 1.5 ug/ear, untreated 9.3 mg, PMA alone 23 mg, *=statistically significant): 17.00 mg/ear
Average Ear Weight ([1]; dose 40.0 ug/ear topical, PMA 1.5 ug/ear, untreated 9.3 mg, PMA alone 23 mg, *=statistically significant): 16.80 mg/ear
Average Ear Weight ([1]; dose 80.0 ug/ear topical, PMA 1.5 ug/ear, untreated 9.3 mg, PMA alone 23 mg, *=statistically significant): 12.90 mg/ear
Average Ear Weight ([1]; dose 160.0 ug/ear topical, PMA 1.5 ug/ear, untreated 9.3 mg, PMA alone 23 mg, *=statistically significant): 12.60 mg/ear
Average Ear Weight ([1]; dose 320.0 ug/ear topical, PMA 1.5 ug/ear, untreated 9.3 mg, PMA alone 23 mg, *=statistically significant): 11.20 mg/ear
inhibition at 0.75 µM [2]: 73.5%
inhibition at 0.25 µM [2]: 20.7%
inhibition at 0.5 µM [2]: 48%
inhibition at 2 µM [2]: 92.8%
inhibition at 4 µM [2]: 94.5%

C=C(C)C1(CCC(C)=CCCC2=CCC(C3=CC(=O)OC3O)OC2O)CCCC1C (stereo not shown) [luffariellin A]
relative increase in ear weight [1, 6]: 0.308±0.065

C=C(C)C1(CCC(C)=CCCC(C=O)=CCC(O)C2=CC(=O)OC2O)CCCC1C (stereo not shown) [luffariellin B]
relative increase in ear weight [1, 6]: 0.262±0.053

CC(=CCCC1=CC(=O)OC1O)CCC=C(C)CCC1=C(C)CCCC1(C)C (stereo not shown) [luffariellolide, 3-(4,8-dimethyl-10-(2,6,6-trimethylcyclohexenyl)-deca,7-dienyl)-4-hydroxybutenolide]
relative increase in ear weight ([1]; 50 ug, PMA alone 0.929±0.200): 0.221±0.068
inhibition at 0.25 µM (bee venom PLA2; 0.25 uM): 59%
inhibition at 0.5 µM (bee venom PLA2; 0.5 uM): 59.7%
inhibition at 1 µM (bee venom PLA2; 1.0 uM): 62.6%
inhibition at 42 µM ([3]; 24 hours): 63%
inhibition at 42 µM ([3]; 48 hours): 74%
inhibition at 42 µM ([3]; 72 hours): 71%
